According to US20050196362A1, “Personal care compositions containing highly branched primary alcohol component” (priority 2004, published 2005):
Each block holds one compound with its values, some of them ahead of it.

Key:
[1] = Viscosity of sunscreen formulation with dispersing agent; assay type: physicochemical; conditions: sunscreen formulation with 15.00 % by weight dispersing agent
Experimental: (§1) This example compares the alcohol of the present invention to several other dispersing agents in terms of in vitro SPF and viscosity. In vitro SPF means that the test was not carried out on human skin, but an artificial medium. The sunscreen formulation is manufactured as follows. The ingredients of Phase A are combined together at 75° C. The ingredients of Phase B are combined together at 75° C. Phase B is then added to Phase A. Phase C is added to the resulting mixture, followed by cooling of the mixture to 40° C. and adding Phase D. The formulation is ready for packaging at a temperature of 35° C.

[2] = Solubility profile of branched emollient alcohols in cosmetic solvents; assay type: physicochemical; parameters: key: +: Soluble; +/−: Dispersible
[3] = Oven stability test of W/O and O/W lotions; assay type: physicochemical; conditions: 90 days at 23° C. and 45° C.
Experimental: Stability Tests: All W/O and O/W lotions were placed on stability testing for phase and odor stability monitoring for 90 days at 23° C. (room temperature) and 45° C.

[4] = Viscosity of lotion/moisturizer emulsions containing the fatty alcohol; assay type: physicochemical
Experimental: Solubility: Two emulsion types (W/O-water-in-oil night cream/lotion and O/W-oil-in-water moisturizer lotion) were prepared. Both types of products incorporated commonly used cosmetic ingredients. The C1617 MM MO and the Guerbet C16 alcohols were used at 15% in the W/O lotion and 10% in the moisturizer.
MO C1617 mono-methyl branched primary alcohol was formulated in a water-in-oil night cream and an oil-in-water moisturizer formula as indicated in Tables 8 and 10 respectively. The viscosity and formula properties of the MO methyl-branched primary alcohol were evaluated relative to a branched C18 emollient alcohol and the data is indicated in Tables 9 and 11 respectively.

[5] = Freeze/Thaw testing of prototype formulation (3 cycles); assay type: physicochemical; conditions: three 24 hr. freeze/thaw cycles
Experimental: Freeze/Thaw testing: Phase stability was observed using approximately 30 ml of a prototype formulation. After preparation, the samples were cooled until solid for 24 hrs. They were allowed to equilibrate to room temperature when the appearance of the formulation was recorded. This process was repeated for three 24 hr. freeze/thaw cycles.

[6] = In vitro SPF of sunscreen formulation with dispersing agent; conditions: sunscreen formulation with 15.00 % by weight dispersing agent; artificial medium
Experimental: as §1

[7] = Pigment dispersion: amount of Eusolex T2000 dispersed before viscosity reaches 10,000 cps; assay type: physicochemical; conditions: 100 g solubilizer/dispersant; Brookfield RVT 20 rpm, 25° C.
Experimental: (§2) The branched primary alcohol component and the Z-cote were mixed for 15 minutes at 5000 rpm using a Silverson mixer to form a dispersion of zinc oxide in the alcohol component. The dispersion was allowed to equilibrate to room temperature (25° C.), and then viscosity measurements were taken using a Brookfield (RTM) RVT Viscometer set at 20 rpm. Additional Z-cote was then added to the branched alcohol component in incremental amounts of 15 g. Viscosity measurements were taken after mixing each incremental amount of Z-cote with the branched alcohol component for 15 minutes and after allowing the resulting dispersion to return to room temperature. When the viscosity of the dispersion reached or exceeded 10,000 cps no further additions of Z-cote were made and no further viscosity measurements were taken. A target viscosity of 10,000 cps was selected since a dispersion having a viscosity of greater than 10,000 cps is not preferred for use in a sunscreen composition.
(§3) Pigment Dispersion: Pigment was added to a 100 gm of emollient sample. The mixture was blended using a Silverson mixer for 15 minutes at 5000 rpm. The viscosity was measured after the sample had equilibrated to room temperature.

[8] = Pigment dispersion: amount of Z-cote dispersed before viscosity reaches 10,000 cps; assay type: physicochemical; conditions: 100 g solubilizer/dispersant; Brookfield RVT 20 rpm, 25° C.
Experimental: as §2
From FIG. 1, the amount of Z-cote needed to provide a dispersion having a viscosity of 10,000 cps may be determined for each solubilizer/dispersant.
as §3

[9] = Pigment dispersion: amount of Z-cote HP1 dispersed before viscosity reaches 10,000 cps; assay type: physicochemical; conditions: 100 g solubilizer/dispersant; Brookfield RVT 20 rpm, 25° C.
Experimental: as §2, §3

[10] = Table 8 formulation, 15.0 % wt fatty alcohol
[11] = Table 10 oil-in-water moisturizer, 10.0 % wt fatty alcohol

Viscosity, cps [1]: 2700 cps
Solubility ([2]; C12-15 Alkyl Benzoate (90%), @ 25° C.): +
Solubility ([2]; C12-15 Alkyl Benzoate (90%), @ 50° C.): +
Solubility ([2]; Dimethicone 245 (90%), @ 25° C.): +
Solubility ([2]; Dimethicone 245 (90%), @ 50° C.): +
Solubility ([2]; Isododecane (90%), @ 25° C.): +
Solubility ([2]; Isododecane (90%), @ 50° C.): +
Solubility ([2]; Isohexadecane (90%), @ 25° C.): +
Solubility ([2]; Isohexadecane (90%), @ 50° C.): +
Solubility ([2]; Isopropylmyristyl Alcohol (90%), @ 25° C.): +
Solubility ([2]; Isopropylmyristyl Alcohol (90%), @ 50° C.): +
Solubility ([2]; Mineral Oil (90%), @ 25° C.): +
Solubility ([2]; Mineral Oil (90%), @ 50° C.): +
Solubility ([2]; Octocrylene (30%), @ 25° C.): +
Solubility ([2]; Octocrylene (30%), @ 50° C.): +
Solubility ([2]; Octyl Dimethyl Paba (30%), @ 25° C.): +
Solubility ([2]; Octyl Dimethyl Paba (30%), @ 50° C.): +
Solubility ([2]; Octyldodecanol (90%), @ 25° C.): +
Solubility ([2]; Octyldodecanol (90%), @ 50° C.): +
Solubility ([2]; Propylene Glycol (90%), @ 25° C.): +/−
Solubility ([2]; Propylene Glycol (90%), @ 50° C.): +
Solubility ([2]; Sesame Oil (90%), @ 25° C.): +
Solubility ([2]; Sesame Oil (90%), @ 50° C.): +
Oven Stability [3, 10]: Pass
Oven Stability [3, 11]: Pass
Viscosity, cps [4, 10]: 7,600 cps
Viscosity, cps [4, 11]: 11,300 cps
Freeze-Thaw (3 cycles) [5, 10]: Pass
Freeze-Thaw (3 cycles) [5, 11]: Pass
Compound: CCCCCCCCC(CO)CCCCCC (centres unmarked) [Guerbet C16 Branched]
In-vitro SPF [6]: 22.6

Amount in grams of Eusolex T2000 needed to give a viscosity of 10,000 cps [7]: 35 grams
Amount in grams of Z-cote needed to give a viscosity of 10,000 cps [8]: 24 grams
Amount in grams of Z-cote HP1 needed to give a viscosity of 10,000 cps [9]: 65 grams
Compound: octyldodecyl neopentanoate [Elefac I-205]

Viscosity, cps [1]: 13000 cps
Compound: CCCCCCCCCCCCCCCC(=O)OCC(CC)CCCC (centres unmarked) [Ethylhexylpalmitate]
In-vitro SPF [6]: 22.73

Amount in grams of Eusolex T2000 needed to give a viscosity of 10,000 cps [7]: 34 grams
Amount in grams of Z-cote needed to give a viscosity of 10,000 cps [8]: 20 grams
Amount in grams of Z-cote HP1 needed to give a viscosity of 10,000 cps [9]: 50 grams
Compound: CCCCCCCCOC(=O)CCCCCCCCC(=O)OCCCCCCCC [Dioctyl sebacate (DOS), Dioctyl sebacate]
